Laboratory results published in US9567302B2, “Carbamate compounds and of making and using same” (Abide Therapeutics, Inc., priority 2012, dated 2017).

Key:
Type in all cases: biochemical
Set-up in all cases: from tissue
[1] = biological target: T1, MAGL (Mus musculus, UniProt O35678); test: In vitro competitive ABPP, % inhibition at fixed concentration, MAGL
T1 sequence (O35678 1-303): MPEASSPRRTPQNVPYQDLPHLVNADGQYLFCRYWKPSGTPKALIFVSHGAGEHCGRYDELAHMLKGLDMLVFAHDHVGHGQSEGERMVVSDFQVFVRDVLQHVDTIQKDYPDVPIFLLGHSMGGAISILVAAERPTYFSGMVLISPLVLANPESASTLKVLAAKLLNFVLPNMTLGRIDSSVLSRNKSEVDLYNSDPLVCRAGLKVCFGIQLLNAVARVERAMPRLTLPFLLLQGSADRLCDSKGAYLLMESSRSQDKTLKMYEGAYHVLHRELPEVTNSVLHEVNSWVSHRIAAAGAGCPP
Procedure, shortened: (§1)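 Mouse brain membrane proteome or cell lysate at 1.0 mg/ml was preincubated with inhibitor for 30 min at 37° C, then labelled with FP-Rh for another 30 min. After SDS-PAGE, activity was quantified from the fluorescent intensity of the MAGL, ABHD6 and FAAH bands.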

[2] = biological target: T2, FAAH (Mus musculus, UniProt O08914); test: In vitro competitive ABPP, % inhibition at fixed concentration, FAAH
T2 sequence (O08914 1-579): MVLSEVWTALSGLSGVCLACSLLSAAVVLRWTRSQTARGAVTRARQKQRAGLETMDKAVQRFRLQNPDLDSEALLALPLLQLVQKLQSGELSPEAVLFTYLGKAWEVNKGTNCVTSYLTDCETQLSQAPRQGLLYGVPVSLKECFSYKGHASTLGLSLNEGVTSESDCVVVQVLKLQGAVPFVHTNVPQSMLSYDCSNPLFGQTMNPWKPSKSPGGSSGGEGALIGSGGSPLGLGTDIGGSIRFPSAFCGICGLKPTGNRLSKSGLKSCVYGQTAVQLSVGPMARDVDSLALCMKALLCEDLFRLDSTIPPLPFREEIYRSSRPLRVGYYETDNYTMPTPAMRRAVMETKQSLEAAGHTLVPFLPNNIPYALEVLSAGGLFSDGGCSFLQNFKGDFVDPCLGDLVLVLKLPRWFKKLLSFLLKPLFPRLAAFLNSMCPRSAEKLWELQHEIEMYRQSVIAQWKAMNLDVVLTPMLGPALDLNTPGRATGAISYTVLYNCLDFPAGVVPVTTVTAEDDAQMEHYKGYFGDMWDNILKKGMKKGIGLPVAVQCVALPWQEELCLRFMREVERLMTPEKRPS
Procedure, shortened: as §1

[3] = biological target: T3, ABHD6 (Mus musculus, UniProt Q8R2Y0); test: In vitro competitive ABPP, % inhibition at fixed concentration, ABHD6
T3 sequence (Q8R2Y0 1-336): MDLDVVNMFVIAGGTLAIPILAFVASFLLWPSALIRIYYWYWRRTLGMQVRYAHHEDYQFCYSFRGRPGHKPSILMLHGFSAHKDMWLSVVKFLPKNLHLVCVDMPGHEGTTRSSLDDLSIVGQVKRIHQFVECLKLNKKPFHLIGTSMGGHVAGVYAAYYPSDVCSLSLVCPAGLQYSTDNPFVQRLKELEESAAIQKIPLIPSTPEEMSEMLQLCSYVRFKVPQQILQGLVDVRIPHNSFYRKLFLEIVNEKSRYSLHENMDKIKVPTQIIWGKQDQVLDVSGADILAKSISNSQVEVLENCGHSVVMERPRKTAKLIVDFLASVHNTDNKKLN
Procedure, shortened: as §1

inhibition at 1 µM [1] | inhibition at 1 µM [2] | inhibition at 1 µM [3] | inhibition at 10 µM [1] | inhibition at 10 µM [2] | inhibition at 10 µM [3] | SMILES
< 25% | < 25% | < 25% |  |  |  | O=C(ON1C(=O)CCC1=O)N1CCN(Cc2ccc(Cl)cc2C(=O)N2CCC2)CC1 [Example 197, 2,5-Dioxopyrrolidin-1-yl 4-{[2-(azetidine-1-carbonyl)-4-chlorophenyl]methyl}piperazine-1-carboxylate]
< 25% | < 25% | < 25% |  |  |  | O=C(ON1C(=O)CCC1=O)N1CCN(Cc2cccc(Cl)c2C(=O)N2CCOCC2)CC1 [Example 198, 2,5-Dioxopyrrolidin-1-yl 4-{[3-chloro-2-(morpholine-4-carbonyl)phenyl]methyl}piperazine-1-carboxylate]
< 25% | < 25% | < 25% |  |  |  | O=C(ON1C(=O)CCC1=O)N1CCN(Cc2cc(Cl)ccc2C(=O)N2CCCC2)CC1 [Example 200, 2,5-Dioxopyrrolidin-1-yl 4-{[5-chloro-2-(pyrrolidine-1-carbonyl)phenyl]methyl}piperazine-1-carboxylate]
25 to 75% | < 25% | > 75% |  |  |  | Cc1c(CN2CCN(C(=O)ON3C(=O)CCC3=O)CC2)cccc1C(=O)N1CCCC1 [Example 206, 2,5-Dioxopyrrolidin-1-yl 4-{[2-methyl-3-(pyrrolidine-1-carbonyl)phenyl]methyl}piperazine-1-carboxylate]
25 to 75% | < 25% | > 75% |  |  |  | Cc1c(CN2CCN(C(=O)ON3C(=O)CCC3=O)CC2)cccc1C(=O)N1CCC1 [Example 207, 2,5-Dioxopyrrolidin-1-yl 4-{[3-(azetidine-1-carbonyl)-2-methylphenyl]methyl}piperazine-1-carboxylate]
< 25% | < 25% | < 25% |  |  |  | Cc1cc(CN2CCN(C(=O)ON3C(=O)CCC3=O)CC2)cc(C(=O)N2CCOCC2)c1 [Example 208, 2,5-Dioxopyrrolidin-1-yl 4-{[3-methyl-5-(morpholine-4-carbonyl)phenyl]methyl}piperazine-1-carboxylate]
< 25% | < 25% | < 25% |  |  |  | O=C(ON1C(=O)CCC1=O)N1CCN(Cc2ccc(Cl)c(C(=O)N3CCOCC3)c2)CC1 [Example 209, 2,5-Dioxopyrrolidin-1-yl 4-{[4-chloro-3-(morpholine-4-carbonyl)phenyl]methyl}piperazine-1-carboxylate]
 |  |  | 25 to 75% | < 25% | < 25% | O=C(ON1C(=O)CCC1=O)N1CCN(C(=O)c2ccccc2)CC1 [Example 212, 2,5-Dioxopyrrolidin-1-yl 4-benzoylpiperazine-1-carboxylate]
 |  |  | < 25% | < 25% | < 25% | O=C(CN1CCOCC1)N1CCN(C(=O)ON2C(=O)CCC2=O)CC1 [Example 215, 2,5-Dioxopyrrolidin-1-yl 4-[2-(morpholin-4-yl)acetyl]piperazine-1-carboxylate]
 |  |  | < 25% | < 25% | < 25% | O=C(ON1C(=O)CCC1=O)N1CCC(N2CCCC2)CC1 [Example 217, 2,5-Dioxopyrrolidin-1-yl 4-(pyrrolidin-1-yl)piperidine-1-carboxylate]
 |  |  | < 25% | < 25% | < 25% | O=C(ON1C(=O)CCC1=O)N1CCC(N2CCCCC2)CC1 [Example 218, 2,5-Dioxopyrrolidin-1-yl 4-(piperidine-1-yl)piperidine-1-carboxylate]
 |  |  | < 25% | < 25% | 25 to 75% | O=C(ON1C(=O)CCC1=O)N1CCC(N2CCCC2=O)CC1 [Example 219, 2,5-Dioxopyrrolidin-1-yl 4-(2-oxopyrrolidin-1-yl)piperidine-1-carboxylate]
 |  |  | < 25% | < 25% | 25 to 75% | O=C(ON1C(=O)CCC1=O)N1CCC(N2CCCCC2=O)CC1 [Example 220, 2,5-Dioxopyrrolidin-1-yl 4-(2-oxopiperidin-1-yl)piperidine-1-carboxylate]

Continued, molecule first:

SMILES | inhibition at 1 µM [1] | inhibition at 1 µM [2] | inhibition at 1 µM [3] | inhibition at 10 µM [1] | inhibition at 10 µM [2] | inhibition at 10 µM [3]
O=C(ON1C(=O)CCC1=O)N1CCN(Cc2cc(Cl)ccc2C(=O)N2CCOCC2)CC1 [Example 199, 2,5-Dioxopyrrolidin-1-yl 4-{[5-chloro-2-(morpholine-4-carbonyl)phenyl]methyl}piperazine-1-carboxylate] | < 25% | < 25% | 25 to 75% |  |  | 
Cc1ccc(C(=O)N2CCOCC2)c(CN2CCN(C(=O)ON3C(=O)CCC3=O)CC2)c1 [Example 201, 2,5-Dioxopyrrolidin-1-yl 4-{[5-methyl-2-(morpholine-4-carbonyl)phenyl]methyl}piperazine-1-carboxylate] | < 25% | < 25% | < 25% |  |  | 
Cc1ccc(C(=O)N2CCCC2)c(CN2CCN(C(=O)ON3C(=O)CCC3=O)CC2)c1 [Example 202, 2,5-Dioxopyrrolidin-1-yl 4-{[5-methyl-2-(pyrrolidine-1-carbonyl)phenyl]methyl}piperazine-1-carboxylate] | < 25% | < 25% | < 25% |  |  | 
O=C(ON1C(=O)CCC1=O)N1CCN(Cc2cc(C(F)(F)F)ccc2C(=O)N2CCOCC2)CC1 [Example 203, 2,5-Dioxopyrrolidin-1-yl 4-{[2-(morpholine-4-carbonyl)-5-(trifluoromethyl)phenyl]methyl}piperazine-1-carboxylate] | < 25% | < 25% | < 25% |  |  | 
O=C(ON1C(=O)CCC1=O)N1CCN(Cc2cc(C(F)(F)F)ccc2C(=O)N2CCCC2)CC1 [Example 204, 2,5-Dioxopyrrolidin-1-yl 4-{[2-(pyrrolidine-1-carbonyl)-5-(trifluoromethyl)phenyl]methyl}piperazine-1-carboxylate] | < 25% | < 25% | < 25% |  |  | 
Cc1c(CN2CCN(C(=O)ON3C(=O)CCC3=O)CC2)cccc1C(=O)N1CCOCC1 [Example 205, 2,5-Dioxopyrrolidin-1-yl 4-{[2-methyl-3-(morpholine-4-carbonyl)phenyl]methyl}piperazine-1-carboxylate] | < 25% | < 25% | > 75% |  |  | 
O=C(ON1C(=O)CCC1=O)N1CCN(Cc2ccc(Cl)c(C(=O)N3CCC3)c2)CC1 [Example 210, 2,5-Dioxopyrrolidin-1-yl 4-{[3-(azetidine-1-carbonyl)-4-chlorophenyl]methyl}piperazine-1-carboxylate] | < 25% | < 25% | 25 to 75% |  |  | 
O=C(ON1C(=O)CCC1=O)N1CCN(C(=O)c2cccc(Cl)c2)CC1 [Example 211, 2,5-Dioxopyrrolidin-1-yl 4-(3-chlorobenzoyl)piperazine-1-carboxylate] |  |  |  | 25 to 75% | < 25% | 25 to 75%
O=C(CN1CCCCC1)N1CCN(C(=O)ON2C(=O)CCC2=O)CC1 [Example 213, 2,5-Dioxopyrrolidin-1-yl 4-[2-(piperidin-1-yl)acetyl]piperazine-1-carboxylate] |  |  |  | < 25% | < 25% | < 25%
O=C(CN1CCCC1)N1CCN(C(=O)ON2C(=O)CCC2=O)CC1 [Example 214, 2,5-Dioxopyrrolidin-1-yl 4-[2-(pyrrolidin-1-yl)acetyl]piperazine-1-carboxylate] |  |  |  | < 25% | < 25% | < 25%
O=C(CN1CCC1)N1CCN(C(=O)ON2C(=O)CCC2=O)CC1 [Example 216, 2,5-Dioxopyrrolidin-1-yl 4-[2-(azetidin-1-yl)acetyl]piperazine-1-carboxylate] |  |  |  | < 25% | < 25% | < 25%
